Tolerance factor data for two compounds are collected here from US10508285B2, “Method for screening of genes conferring increased tolerance to herbicides” (priority 2014, dated 2019).

The assay concerns Protoporphyrinogen IX Oxidase (PPO) R128L. The assay is classed as cell-based, Amaranthus tuberculatus.

`C#CCN1C(=O)C(F)(F)Oc2cc(F)c(-n3c(=O)n(C)c(=S)n(C)c3=O)cc21` [BAS 850H] yielded a Tolerance factor of 28.7.
With `CC(C)N(C)S(=O)(=O)NC(=O)c1cc(-n2c(=O)cc(C(F)(F)F)n(C)c2=O)c(F)cc1Cl` [Saflufenacil] the figure was 170.
